# Legend:
# Assay in all cases: relative viability (nuclei count vs DMSO), 5 days (fraction); higher = more cells survive
# [1] = tested on: A549
# Outline: (§1)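 Medians of duplicate plates are given as relative viability. That measure is the nuclei count in treated wells divided by the count in vehicle wells. Counts were taken on 4× images of lung cancer cell lines in 1536-well plates, 5 days after pin-tool dosing the day after seeding with one drug alone or a fixed anchor-drug dose plus five library-drug doses (not always all listed) in √10 steps.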
# [2] = tested on: NCI-H2170
# Outline: as §1
# [3] = tested on: Calu-6
# Outline: as §1
# [4] = tested on: EBC-1
# Outline: as §1
# [5] = tested on: IA-LM
# Outline: as §1
# [6] = tested on: NCI-H1299
# Outline: as §1
# [7] = tested on: NCI-H727
# Outline: as §1
# [8] = tested on: NCI-H520
# Outline: as §1
# [9] = tested on: NCI-H1703
# Outline: as §1
# [10] = tested on: NCI-H2023
# Outline: as §1
compound,measurement,setting,value
CCNC(=O)c1noc(-c2cc(C(C)C)c(O)cc2O)c1-c1ccc(CN2CCOCC2)cc1 [Luminespib] + CS(=O)(=O)N1CCN(Cc2cc3nc(-c4cccc5[nH]ncc45)nc(N4CCOCC4)c3s2)CC1 [Pictilisib] (partner 1 µM),relative viability,[1]; first compound 0.002 µM,0.536
same,relative viability,[1]; first compound 0.006325 µM,0.517
same,relative viability,[1]; first compound 0.02 µM,0.152
same,relative viability,[1]; first compound 0.06325 µM,0.0437
same,relative viability,[1]; first compound 0.2 µM,0.0569
same,relative viability,[2]; first compound 0.002 µM,0.304
same,relative viability,[2]; first compound 0.006325 µM,0.313
same,relative viability,[2]; first compound 0.02 µM,0.223
same,relative viability,[2]; first compound 0.06325 µM,0.165
same,relative viability,[2]; first compound 0.2 µM,0.155
same,relative viability,[3]; first compound 0.002 µM,1.04
same,relative viability,[3]; first compound 0.006325 µM,0.847
same,relative viability,[3]; first compound 0.02 µM,1
same,relative viability,[3]; first compound 0.06325 µM,0.119
same,relative viability,[3]; first compound 0.2 µM,0.112
same,relative viability,[4]; first compound 0.002 µM,0.471
same,relative viability,[4]; first compound 0.006325 µM,0.365
same,relative viability,[4]; first compound 0.02 µM,0.248
same,relative viability,[4]; first compound 0.06325 µM,0.118
same,relative viability,[4]; first compound 0.2 µM,0.128
same,relative viability,[5]; first compound 0.002 µM,0.324
same,relative viability,[5]; first compound 0.006325 µM,0.369
same,relative viability,[5]; first compound 0.02 µM,0.159
same,relative viability,[5]; first compound 0.06325 µM,0.0483
same,relative viability,[5]; first compound 0.2 µM,0.0407
same,relative viability,[6]; first compound 0.002 µM,0.874
same,relative viability,[6]; first compound 0.006325 µM,0.698
same,relative viability,[6]; first compound 0.02 µM,0.767
same,relative viability,[6]; first compound 0.06325 µM,0.0703
same,relative viability,[6]; first compound 0.2 µM,0.0666
same,relative viability,[7]; first compound 0.002 µM,0.427
same,relative viability,[7]; first compound 0.006325 µM,0.399
same,relative viability,[7]; first compound 0.02 µM,0.264
same,relative viability,[7]; first compound 0.06325 µM,0.123
same,relative viability,[7]; first compound 0.2 µM,0.166
same,relative viability,[8]; first compound 0.002 µM,0.298
same,relative viability,[8]; first compound 0.006325 µM,0.334
same,relative viability,[8]; first compound 0.02 µM,0.209
same,relative viability,[8]; first compound 0.06325 µM,0.176
same,relative viability,[8]; first compound 0.2 µM,0.196
same,relative viability,[9]; first compound 0.002 µM,0.251
same,relative viability,[9]; first compound 0.006325 µM,0.244
same,relative viability,[9]; first compound 0.02 µM,0.179
same,relative viability,[9]; first compound 0.06325 µM,0.179
same,relative viability,[9]; first compound 0.2 µM,0.165
same,relative viability,[10]; first compound 0.002 µM,0.274
same,relative viability,[10]; first compound 0.006325 µM,0.243
same,relative viability,[10]; first compound 0.02 µM,0.105
same,relative viability,[10]; first compound 0.06325 µM,0.0887
same,relative viability,[10]; first compound 0.2 µM,0.0954
CN1CCN(CCOc2cc(OC3CCOCC3)c3c(Nc4c(Cl)ccc5c4OCO5)ncnc3c2)CC1 [Saracatinib] + CS(=O)(=O)CCNCc1ccc(-c2ccc3ncnc(Nc4ccc(OCc5cccc(F)c5)c(Cl)c4)c3c2)o1 [Lapatinib] (partner 2 µM),relative viability,[1]; first compound 0.02 µM,1.06
same,relative viability,[1]; first compound 0.2 µM,1.01
same,relative viability,[1]; first compound 0.6325 µM,0.812
same,relative viability,[1]; first compound 2 µM,0.791
same,relative viability,[2]; first compound 0.02 µM,0.28
same,relative viability,[2]; first compound 0.2 µM,0.246
same,relative viability,[2]; first compound 0.6325 µM,0.293
same,relative viability,[2]; first compound 2 µM,0.231
same,relative viability,[3]; first compound 0.02 µM,1.08
same,relative viability,[3]; first compound 0.2 µM,0.839
same,relative viability,[3]; first compound 0.6325 µM,0.913
same,relative viability,[3]; first compound 2 µM,0.745
same,relative viability,[4]; first compound 0.02 µM,0.199
same,relative viability,[4]; first compound 0.2 µM,0.23
same,relative viability,[4]; first compound 0.6325 µM,0.197
same,relative viability,[4]; first compound 2 µM,0.212
same,relative viability,[5]; first compound 0.02 µM,0.803
same,relative viability,[5]; first compound 0.2 µM,0.799
same,relative viability,[5]; first compound 0.6325 µM,1.19
same,relative viability,[5]; first compound 2 µM,0.799
same,relative viability,[6]; first compound 0.02 µM,0.982
same,relative viability,[6]; first compound 0.2 µM,1.02
same,relative viability,[6]; first compound 0.6325 µM,1
same,relative viability,[6]; first compound 2 µM,0.941
same,relative viability,[7]; first compound 0.02 µM,0.688
same,relative viability,[7]; first compound 0.2 µM,0.647
same,relative viability,[7]; first compound 0.6325 µM,0.78
same,relative viability,[7]; first compound 2 µM,0.587
same,relative viability,[8]; first compound 0.02 µM,0.853
same,relative viability,[8]; first compound 0.2 µM,0.693
same,relative viability,[8]; first compound 0.6325 µM,0.708
same,relative viability,[8]; first compound 2 µM,0.574
same,relative viability,[9]; first compound 0.02 µM,0.873
same,relative viability,[9]; first compound 0.2 µM,1.02
same,relative viability,[9]; first compound 0.6325 µM,0.376
same,relative viability,[9]; first compound 2 µM,0.283
same,relative viability,[10]; first compound 0.02 µM,1.33
same,relative viability,[10]; first compound 0.2 µM,0.701
same,relative viability,[10]; first compound 0.6325 µM,0.998
same,relative viability,[10]; first compound 2 µM,0.698

# — the supplement of paper PMC10307832
